In patent US20120071501A1, “USE OF EXTRACTS OF THE GENUS CIMICIFUGA AS ORGANOSELECTIVE MEDICINES FOR TREATING DISEASES OF THE GENITOURINARY TRACT CAUSED BY SEX HORMONES” (Bionorica AG, priority 2001, published 2012):

Key:
[1] = test system: urinary bladder of ovarectomized rats; test: Differential bladder tonus (bladder elasticity) of ovarectomized rats; type: in vivo, rat
Experimental: Following a three-month treatment of ovarectomized rats with Cimicifuga racemosa extract, the maximum pressure in the urinary bladder [in mm Hg] and the minimum pressure [in mm Hg] following relaxation of the bladder were determined by instillation of 1 ml of physiological saline solution.

[2] = test system: estrogen receptor-alpha; test: Expression of estrogen receptor-alpha in the urinary bladder; type: in vivo, rat; settings: ovarectomized rats
Source text: In the bladder both the estrogen receptor ER-alpha and ER-beta are expressed.

[3] = test system: estrogen receptor of the alpha-subtype; test: Gene expression of estrogen receptor alpha-subtype in the prostate of male castrated rat; type: in vivo
[4] = test system: estrogen receptor-beta; test: Gene expression of estrogen receptor-beta in the prostate of male castrated rat; type: in vivo
[5] = test system: rat prostate; test: In-vivo experiments in the rat prostate in the whole-body model; settings: castrated rat
[6] = test system: IGF1; test: IGF1 gene expression in the prostate of castrated male rats; type: in vivo, rat

Structure (SMILES): O=C(c1ccc(OCN2CCCCC2)cc1)c1c(-c2ccc(O)cc2)sc2cc(O)ccc12 [Raloxifen]
- differential pressure between maximum and minimum pressure (bladder elasticity) ([1]; highest Cimicifuga dose 400 mg/kg/d, compared with Raloxifen): comparable

Structure (SMILES): C[C@]12CC[C@@H]3c4ccc(O)cc4CC[C@H]3[C@@H]1CC[C@@H]2O [estradiol, 17β-estradiol]
- expression of the estrogen receptor-alpha in the urinary bladder [2]: regulate down
- gene expression of the estrogen receptor of the alpha-subtype in the prostate [3]: significantly inhibit
- gene expression of the estrogen receptor-beta in the prostate [4]: without having an effect
- differential pressure between maximum and minimum pressure (bladder elasticity) ([1]; three-month treatment, instillation of 1 ml physiological saline, in comparison with placebo controls): most effective substance

Structure (SMILES): C[C@]12CC[C@H]3[C@@H](CCC4=CC(=O)CC[C@@]43C)[C@@H]1CC[C@@H]2O [testosterone]
- prostate regression induced by castration [5]: could be antagonized
- gene expression of the growth factor IGF1 in the prostate [6]: regulated up
